Results from ChEMBL document CHEMBL1138878 (J Med Chem, 2006).
Active and inactive are the calls of the source. No cut-off for these calls is given here.

Columns and labels:
HEK-293T [1] = test: Inhibition of TNF-alpha-induced NF-kappaB activation in HEK293T cells; type: functional, cell-based; settings: Homo sapiens
BV-2 [2] = test: Suppression of LPS-stimulated COX2 mRNA expression in mouse BV2 cells at 0.15 uM; type: functional, cell-based
HEK-293T [3] = test: Loss in viability of human HEK293T cells at 15 uM after 7 hrs relative to control; type: functional, cell-based
[4] = system: Radical scavenging activity; test: Antioxidant activity measured as ability to reduce ferric tripyridyltriazine complex at 15 uM by FRAP assay; type: functional
[5] = system: Radical scavenging activity; test: Antioxidant activity measured as ability to react with ABTS radical cation at 15 uM by TRAP assay; type: functional
BV-2 [6] = test: Suppression of LPS-stimulated COX2 mRNA expression in mouse BV2 cells at 4 uM; type: functional
BV-2 [7] = test: Suppression of LPS-stimulated COX2 mRNA expression in mouse BV2 cells at 20 uM; type: functional, cell-based

In the case of COc1ccc(/C=C/c2ccccc2F)cc1, the IC50 (HEK-293T [1]) is reported as 0.15 µM, the Activity (BV-2 [2]) is reported as “Active” and the Activity (HEK-293T [3]) is reported as “inactive”. For the same compound, the Activity [4] was “inactive” and the Activity [5] was “inactive”.

In the case of COc1ccc(/C=C/c2cccc(C)c2)cc1, the IC50 (HEK-293T [1]) is reported as 0.8 µM, the Activity (HEK-293T [3]) is reported as “inactive” and the Activity [4] is reported as “inactive”. The Activity [5] was “inactive”.

In the case of COc1ccc(/C=C/c2cccc(Cl)c2)cc1, the IC50 (HEK-293T [1]) is reported as 1 µM, the Activity (HEK-293T [3]) is reported as “inactive” and the Activity [4] is reported as “inactive”. For the same compound, the Activity [5] was “inactive”.

With COc1ccc(/C=C/c2ccccc2Cl)cc1 the IC50 (HEK-293T [1]) was 1.5 µM, the Activity (HEK-293T [3]) was “inactive” and the Activity [4] was “inactive”. The Activity [5] was “inactive”.

In the case of C(=C\c1ccc2ccccc2c1)/c1ccccc1, the Activity (HEK-293T [3]) is reported as “inactive”, the Activity [4] is reported as “inactive” and the Activity [5] is reported as “inactive”.

COc1ccc(/C=C/c2ccc(C)cc2)cc1 was tested, and the IC50 (HEK-293T [1]) was 0.9 µM, the Activity (HEK-293T [3]) was “inactive” and the Activity [4] was “inactive”. The Activity [5] was “inactive”.

COc1ccc(/C=C/c2cccc(O)c2O)cc1 was tested, and the Activity (HEK-293T [3]) was “inactive”, the Activity [4] was “Active” and the Activity [5] was “Active”.

With Oc1ccc(/C=C/c2cc(O)cc(O)c2)cc1 [RESVERATROL] the IC50 (HEK-293T [1]) was 20 µM, the Activity (BV-2 [6]) was 50% and the Activity (BV-2 [7]) was “Active”. For the same compound, the Activity (HEK-293T [3]) was “inactive”, the Activity [4] was “Active” and the Activity [5] was “Active”.

For COc1ccc(/C=C/c2ccc(O)c(O)c2)cc1, the IC50 (HEK-293T [1]) was 0.6 µM, the Activity (HEK-293T [3]) was “inactive” and the Activity [4] was “Active”. The Activity [5] was “Active”.

With CCOc1ccc(/C=C/c2ccccc2)cc1 the Activity (HEK-293T [3]) was “inactive”, the Activity [4] was “inactive” and the Activity [5] was “inactive”.

With CN(C)c1ccc(/C=C/c2ccccc2)cc1 the IC50 (HEK-293T [1]) was 0.15 µM, the Activity (BV-2 [2]) was “Active” and the Activity (HEK-293T [3]) was “inactive”. For the same compound, the Activity [4] was “Active” and the Activity [5] was “Active”.

COc1ccc(/C=C/c2cccc(F)c2)cc1 was tested, and the Activity (HEK-293T [3]) was “inactive”, the Activity [4] was “inactive” and the Activity [5] was “inactive”.

For COc1ccc(/C=C/c2cccc(OC)c2)cc1, the IC50 (HEK-293T [1]) was 0.6 µM, the Activity (HEK-293T [3]) was “inactive” and the Activity [4] was “inactive”. For the same compound, the Activity [5] was “inactive”.
